Paper PMC11236999, “Antagonism of propofol anesthesia by alkyl-fluorobenzene derivatives” (Scientific Reports, 2024)
pIC50: −log10 of the molar value. Entries after “also recorded” stand apart in the source; their conditions may differ.

How the values were obtained:
5 dpf larval zebrafish [1] = assay: Zebrafish behavioral model of anesthesia, elicited movement (EM, tap stimulus); format: in vivo
Description: (§1) Figure 2 Screening of PFAL compounds for antagonism of anesthesia. PFAL compounds were screened in 5 dpf zebrafish for their ability to antagonize the anesthetic effects of propofol (panels a, b, c and d) as well as sevoflurane and isoflurane (panels e and f). Each dot represents the data collected from one fish. Spontaneous movement (SM) is the distance of spontaneous swimming in a 4 min period, and elicited movement (EM) is distance moved in 1 s after exposure to a tap stimulus. Both measures were scaled to same-day DMSO controls. […] Mean and 95% CI are shown for each data set. Statistical comparison with both DMSO (D) only (black asterisks) and anesthetic control (Ctrl, gray asterisks) groups are shown. Note that each DMSO comparison is to the DMSO only control (sample on the furthest left of each graph, and the anesthetic control comparisons are made within each anesthetic grouping as indicated by the bars along the x-axis of each graph. ns: P > 0.05, *: P ≤ 0.05, **: P ≤ 0.01, ***: P ≤ 0.001, ****: P ≤ 0.0001).
(§2) Behavioral experiments (screening, EC50 curves) were performed as previously reported. Antagonism after induction was conducted in a similar manner with different timepoints and solution changes as indicated. The DanioVision Observation Chamber (Noldus) and Ethovision XT16 software were used to track and record (1280 × 960 resolution at 25 frames per second) larval zebrafish (5 dpf) movement in glass 96-well plates (Zissner North America 3,600,500). All experiments were performed at 28 °C with the DanioVision Temperature Control Unit. Zebrafish were allowed to equilibrate in E3 and 2% DMSO (with or without drug) for 10 min before being placed in the observation chamber for 22 min of recording. Two different endpoints were used to assess depth of anesthesia: spontaneous movement (SM) and elicited movement (EM). In these measures, fish movement was considered to be non-anesthetized. During each observation, fish were given time to acclimate to the chamber, and minutes 15–19 of the recording were used for analysis of SM. An EM response using the Daniovision tapping device (8 out of 8 intensity, movement response measured for 1 s after stimulus) was also measured at the end of the SM observation period. All recordings were scrutinized by a blind observer for technical errors in tracking to ensure accuracy of zebrafish detection and inaccurate tracking was excluded from further analysis. Toxicity was measured in separate experiments by exposing larvae to compounds for 30 min, transferring to fresh E3, and then observing mortality after exposure. […]

[2] = test system: propofol-sensitive GABAAR; set-up: method as in PMID 25799399; details: cited from earlier work
tadpoles = test system: tadpoles; set-up: method as in PMID 25799399; details: cited from earlier work
zebrafish = test system: zebrafish; set-up: method as in PMID 33355437; details: cited from earlier work
5 dpf zebrafish = assay: Antagonism of anesthesia after induction (sequential addition); format: in vivo; details: propofol 3 μM for 10 min, then propofol 3 μM plus 30 μM compound
Description: In the above studies, the anesthetic and PFAL compounds were co-administered to the fish simultaneously.
Figure 5 Further Characterization of Propofol Antagonism with Compounds 9 and 10. a and b 5 dpf zebrafish (n = 36) were first anesthetized with 3 μM propofol and then 30 μM of either compound 9 or 10 was added. Between minutes 5 and 10 there is a small gap in the data during which the propofol solution was removed and a solution containing propofol and PFAL compound was added. […] The mean and 95% CI is shown for each data point in all panels.
Behavioral experiments (screening, EC50 curves) were performed as previously reported. Antagonism after induction was conducted in a similar manner with different timepoints and solution changes as indicated. The DanioVision Observation Chamber (Noldus) and Ethovision XT16 software were used to track and record (1280 × 960 resolution at 25 frames per second) larval zebrafish (5 dpf) movement in glass 96-well plates (Zissner North America 3,600,500). […] An EM response using the Daniovision tapping device (8 out of 8 intensity, movement response measured for 1 s after stimulus) was also measured at the end of the SM observation period. […] Toxicity was measured in separate experiments by exposing larvae to compounds for 30 min, transferring to fresh E3, and then observing mortality after exposure.

5 dpf larval zebrafish [3] = assay: Zebrafish behavioral model of anesthesia, spontaneous movement (SM); format: in vivo
Description: as §1, §2

[4] = target: T1, horse spleen apoferritin (HSAF) (Equus caballus, UniProt P02791); assay: 1-Aminoanthracene (1-AMA) competition fluorescence assay; format: binding
T1 construct: model protein HSAF (horse spleen apoferritin); purchased Sigma-Aldrich; host or cells: horse spleen (tissue-derived)
T1 sequence (P02791 2-175 limits assumed): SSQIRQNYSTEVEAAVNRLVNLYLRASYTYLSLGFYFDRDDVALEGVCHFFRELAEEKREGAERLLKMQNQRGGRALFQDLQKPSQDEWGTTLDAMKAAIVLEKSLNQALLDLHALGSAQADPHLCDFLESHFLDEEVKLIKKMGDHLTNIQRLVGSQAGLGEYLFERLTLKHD

[5] = target: T1, horse spleen apoferritin (HSAF); set-up: method as in doi:10.1055/s-0040-1707287; details: cited from earlier work
[6] = PFAL compound alone at 10 and 30 μM, versus DMSO control

CC(C)c1cccc(C(C)C)c1F [Compound 9, 1,3-diisopropyl-2-fluorobenzene]
Elicited movement (EM), compound alone (5 dpf larval zebrafish [1]; [6]): increased EM | Schild-type analysis with EM (5 dpf larval zebrafish [1]; propofol EC50 curves (EM) at various concentrations of the compound, Fig. S6): no such relationship of antagonism was observed | Modulation of a propofol-sensitive GABAAR [2]: no significant modulation | Antagonism of propofol in tadpoles (tadpoles): antagonize propofol | Antagonism of propofol in zebrafish (zebrafish): antagonize propofol | Reversal of established propofol immobility (5 dpf zebrafish): rapid reversal of propofol immobility | Antagonism of propofol via SM (5 dpf larval zebrafish [3]; 30 μM PFAL compound co-administered with propofol (0.3, 1, 5 μM), screen): showed antagonism of propofol; also recorded: statistically significant antagonism | Antagonism of propofol via SM at 5 μM propofol (5 dpf larval zebrafish [3]; 30 μM PFAL compound, propofol 5 μM): antagonized propofol | pIC50 (5 dpf larval zebrafish [3]; Danio rerio, 120 h, 5 dpf zebrafish exposed to 3 μM propofol, Fig. 5d, read-out: IC50 (antagonism of propofol)): 4.43 | Spontaneous movement (SM), compound alone (5 dpf larval zebrafish [3]; [6]): increased SM | Increase of propofol EC50 versus propofol alone, spontaneous movement (5 dpf larval zebrafish [3]; propofol plus 30 μM compound, Fig. 4a): ~ tenfold | Inhibition of 1-AMA binding to HSAF ([4]; 15 μM 1-AMA, 15 μM HSAF dimer, ligand 1 to 125 μM): most potent inhibitors of 1-AMA binding | Shape of IC50 curve for 1-AMA displacement ([4]; Fig. 6b): incomplete inhibition of 1-AMA binding | Binding to the anesthetic site of HSAF [5]: binds to this site
